From patent publication EP0448811A1, “New pharmaceutical composition with anti-inflammatory activity” (SCLAVO S.p.A., priority 1989, dated 1991)

Columns and labels:
[1] = test system: adjuvant-induced arthritis in the rat; experiment: adjuvant-induced arthritis in the rat (secondary lesion, uninjected paw volume by water plethysmometer); format: in vivo, consanguineous Lewis rats
plasma peptidase = conditions: compared with natural tuftsin (I); cited from earlier work

With gThr-mLys-Pro-Arg-OH [R-T] the “effectiveness relative to natural tuftsin” value ([1]; administered orally) was “at least 10 times”, the “reduction in secondary lesion development” value ([1]; intraperitoneally (i.p.), 0.1 mg/kg, three times per week until the 38th day) was “appreciable reduction in secondary lesion development, which is statistically significant only during the initial days of treatment” and the “anti-inflammatory activity (reduction in the volume of the uninjected paw)” value ([1]; oral (intragastric intubation), 0.1 mg/kg, three times per week from day 0 until the 38th day, paw volume from the 14th day) was “considerable anti-inflammatory activity”. The “reduction in secondary lesion” value ([1]; subcutaneously (s.c.), 0.1 mg/kg, three times per week until the 38th day) was “no statistically significant reduction in secondary lesion” and the “stability towards plasma peptidase” value (plasma peptidase) was “greater stability towards plasma peptidase”.
